{"source": "patent US20230270804A1", "about": "“ANTI-HYPERCHOLESTEROLEMIA COMPOSITION AND A METHOD OF MANUFACTURING THE SAME” (NBI BIOSCIENCES PRIVATE LIMITED, priority 2020, published 2023)", "type_in_all_cases": "in vivo, Wistar strain albino rats", "key": {"[1]": {"test": "Prophylactic study: hematological parameters", "settings": "HFD+normal diet; for Lymphocyte / Neutrophils: in % (unit assumed)", "protocol": "(§1) Wistar strain albino rats of body weight ranging from 190-225 g were selected for the present study. The temperature and humidity were kept at optimum (22+2° C.; 40-70% and animals were exposed to natural chronological day night cycles. The experiments were carried out in conformity with the Institutional Animal Ethics Committee.\n(§2) The 6 groups were as follows: • 1. Normal Control • 2.\n(§3) 1.5-2 ml blood sample was taken from retino-orbital chamber in vials for biochemical estimations at every 15 days. Investigations performed included detailed Total Cholesterol—TC (mg/dl), Triglyceride—TG (mg/dl), High Density Lipoprotein—HDL-C (mg/dl), Low Density Lipoprotein—LDL-C (mg/dl), Very Low-Density Lipoprotein—VLDL (mg/dl), WBC (10^3/u1), RBC (10^6/u1), Hb (g/dl), PCV (%), Reticulocyte (%), Platelet count 10^5/mm^3, Clotting time (Sec), Neutrophils, Lymphocyte, Monocyte and Eosinophil. The estimations were done with Ecoline kits from Erba Mannheim, ERBA diagnostics Mannheml, Germany using Semi Autoanalyzer RX50 of MicroLabs Instruments and COUNCELL21 of Tulip Diagnostics Pvt. Ltd. Lipid peroxidation (Plasma & Liver), HMG Co-Reductase, Creatine phosphokinase (CPK), Lactate dehydrogenase (LDH), SGOT and SGPT were estimated at the end of both the studies using the kits."}, "HMG CoA Reductase": {"target": "T1, HMG CoA Reductase (Rattus norvegicus, UniProt P51639)", "T1 construct": "The tissue homogenate was prepared by homogenizing 1 gm of tissue (liver) with 10 ml of saline arsenate solution; from tissue; host or cells: rat liver homogenate", "T1 sequence (P51639 1-887)": "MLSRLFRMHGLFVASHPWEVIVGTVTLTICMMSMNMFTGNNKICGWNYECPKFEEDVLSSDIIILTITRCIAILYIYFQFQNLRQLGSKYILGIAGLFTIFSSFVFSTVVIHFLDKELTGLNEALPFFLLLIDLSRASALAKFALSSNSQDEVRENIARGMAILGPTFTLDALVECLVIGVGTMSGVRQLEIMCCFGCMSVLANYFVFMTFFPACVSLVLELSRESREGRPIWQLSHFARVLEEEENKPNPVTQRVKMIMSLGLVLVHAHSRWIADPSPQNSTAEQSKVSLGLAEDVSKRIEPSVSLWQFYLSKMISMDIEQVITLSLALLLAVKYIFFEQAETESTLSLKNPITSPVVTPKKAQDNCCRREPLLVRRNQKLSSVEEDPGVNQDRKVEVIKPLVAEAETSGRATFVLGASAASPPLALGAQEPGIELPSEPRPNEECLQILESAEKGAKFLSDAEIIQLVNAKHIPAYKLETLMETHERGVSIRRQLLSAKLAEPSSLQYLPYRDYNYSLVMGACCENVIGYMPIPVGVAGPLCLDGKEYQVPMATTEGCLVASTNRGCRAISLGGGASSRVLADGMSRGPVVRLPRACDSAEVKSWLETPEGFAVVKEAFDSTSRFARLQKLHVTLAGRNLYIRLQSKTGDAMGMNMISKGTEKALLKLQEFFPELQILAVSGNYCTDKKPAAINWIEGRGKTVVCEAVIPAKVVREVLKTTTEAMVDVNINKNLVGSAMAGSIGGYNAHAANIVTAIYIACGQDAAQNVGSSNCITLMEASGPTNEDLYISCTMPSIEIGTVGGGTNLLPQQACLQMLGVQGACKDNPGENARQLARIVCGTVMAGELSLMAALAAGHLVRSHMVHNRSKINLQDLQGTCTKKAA", "test": "Therapeutic study: HMG CoA reductase activity in liver homogenate", "settings": "after necropsy", "protocol": "as §3\nThe tissue homogenate was prepared by homogenizing 1 gm of tissue (liver) with 10 ml of saline arsenate solution. Further equal volumes of the fresh 10% tissue homogenate and diluted perchloric acid were mixed and allowed to stand for 5 minute and centrifuge (2000 rpm, 10 minutes). […] The readings were taken after 10 minutes at 540 nm vs. a similarly treated saline/arsenate blank."}, "[2]": {"test": "Therapeutic study (60 days treatment after 90 days HFD): body weight", "settings": "in g", "protocol": "as §1, §2"}}, "data": [{"smiles": "CC(C)c1c(C(=O)Nc2ccccc2)c(-c2ccccc2)c(-c2ccc(F)cc2)n1CC[C@@H](O)C[C@@H](O)CC(=O)O", "note": "[Statin, Atorvastatin]", "values": [{"measurement": "Clotting time", "setting": "[1]; day 0", "result": "109.0 ± 1.10", "unit": "s"}, {"measurement": "Eosinophil", "setting": "[1]; day 0", "result": 1.1, "unit": "%"}, {"measurement": "Hb", "setting": "[1]; day 0", "result": "11.95 ± 1.10", "unit": "g/dL"}, {"measurement": "Monocyte", "setting": "[1]; day 0", "result": 1.4, "unit": "%"}, {"measurement": "PCV", "setting": "[1]; day 0", "result": "42.50 ± 1.80", "unit": "%"}, {"measurement": "RBC", "setting": "[1]; day 0", "result": "7.20 ± 0.20 10^6/μl"}, {"measurement": "Reticulocyte", "setting": "[1]; day 0", "result": "1.15 ± 0.05", "unit": "%"}, {"measurement": "WBC", "setting": "[1]; day 0", "result": "8.90 ± 0.55 10^3/μl"}, {"measurement": "Lymphocyte", "setting": "[1]; day 0", "result": 71.5}, {"measurement": "Neutrophils", "setting": "[1]; day 0", "result": 26}, {"measurement": "Clotting time", "setting": "[1]; day 15", "result": "107.45 ± 0.77", "unit": "s"}, {"measurement": "Eosinophil", "setting": "[1]; day 15", "result": 1.3, "unit": "%"}, {"measurement": "Monocyte", "setting": "[1]; day 15", "result": 1.4, "unit": "%"}, {"measurement": "PCV", "setting": "[1]; day 15", "result": "35.85 ± 1.11", "unit": "%"}, {"measurement": "Platelet count", "setting": "[1]; day 15", "result": "905 ± 21.2 10³/µL"}, {"measurement": "RBC", "setting": "[1]; day 15", "result": "7.20 ± 0.81 10^6/μl"}, {"measurement": "Reticulocyte", "setting": "[1]; day 15", "result": "1.10 ± 0.11", "unit": "%"}, {"measurement": "WBC", "setting": "[1]; day 15", "result": "9.79 ± 0.57 10^3/μl"}, {"measurement": "Lymphocyte", "setting": "[1]; day 15", "result": 72.7}, {"measurement": "Neutrophils", "setting": "[1]; day 15", "result": 24.6}, {"measurement": "Clotting time", "setting": "[1]; day 30", "result": "110.0 ± 1.0", "unit": "s"}, {"measurement": "Eosinophil", "setting": "[1]; day 30", "result": 1.15, "unit": "%"}, {"measurement": "Monocyte", "setting": "[1]; day 30", "result": 1.6, "unit": "%"}, {"measurement": "Platelet count", "setting": "[1]; day 30", "result": "1060 ± 23.3 10³/µL"}, {"measurement": "RBC", "setting": "[1]; day 30", "result": "7.20 ± 0.20 10^6/μl"}, {"measurement": "Reticulocyte", "setting": "[1]; day 30", "result": "1.08 ± 0.10", "unit": "%"}, {"measurement": "WBC", "setting": "[1]; day 30", "result": "9.03 ± 0.3 10^3/μl"}, {"measurement": "Lymphocyte", "setting": "[1]; day 30", "result": 71.25}, {"measurement": "Neutrophils", "setting": "[1]; day 30", "result": 26}, {"measurement": "Clotting time", "setting": "[1]; day 45", "result": "114.0 ± 1.00", "unit": "s"}, {"measurement": "Eosinophil", "setting": "[1]; day 45", "result": 1.15, "unit": "%"}, {"measurement": "Hb", "setting": "[1]; day 45", "result": "12.00 ± 1.20", "unit": "g/dL"}, {"measurement": "Monocyte", "setting": "[1]; day 45", "result": 1.4, "unit": "%"}, {"measurement": "PCV", "setting": "[1]; day 45", "result": "42.10 ± 1.30", "unit": "%"}, {"measurement": "RBC", "setting": "[1]; day 45", "result": "7.05 ± 0.21 10^6/μl"}, {"measurement": "Reticulocyte", "setting": "[1]; day 45", "result": "1.25 ± 0.06", "unit": "%"}, {"measurement": "WBC", "setting": "[1]; day 45", "result": "9.00 ± 0.50 10^3/μl"}, {"measurement": "Lymphocyte", "setting": "[1]; day 45", "result": 71.45}, {"measurement": "Neutrophils", "setting": "[1]; day 45", "result": 26}, {"measurement": "Clotting time", "setting": "[1]; day 60", "result": "112.0 ± 1.05", "unit": "s"}, {"measurement": "Hb", "setting": "[1]; day 60", "result": "12.20 ± 1.12", "unit": "g/dL"}, {"measurement": "PCV", "setting": "[1]; day 60", "result": "43.10 ± 1.30", "unit": "%"}, {"measurement": "RBC", "setting": "[1]; day 60", "result": "7.06 ± 0.31 10^6/μl"}, {"measurement": "Reticulocyte", "setting": "[1]; day 60", "result": "1.35 ± 0.06", "unit": "%"}, {"measurement": "WBC", "setting": "[1]; day 60", "result": "8.00 ± 0.60 10^3/μl"}, {"measurement": "Lymphocyte", "setting": "[1]; day 60", "result": 71.45}, {"measurement": "Neutrophils", "setting": "[1]; day 60", "result": 26}, {"measurement": "Clotting time", "setting": "[1]; day 75", "result": "110.81 ± 5.86", "unit": "s"}, {"measurement": "Eosinophil", "setting": "[1]; day 75", "result": 1.22, "unit": "%"}, {"measurement": "Hb", "setting": "[1]; day 75", "result": "12.82 ± 0.25", "unit": "g/dL"}, {"measurement": "Platelet count", "setting": "[1]; day 75", "result": "1070 ± 22.9 10³/µL"}, {"measurement": "RBC", "setting": "[1]; day 75", "result": "7.36 ± 0.21 10^6/μl"}, {"measurement": "Reticulocyte", "setting": "[1]; day 75", "result": "1.70 ± 0.05", "unit": "%"}, {"measurement": "WBC", "setting": "[1]; day 75", "result": "8.71 ± 0.23 10^3/μl"}, {"measurement": "Lymphocyte", "setting": "[1]; day 75", "result": 71.12}, {"measurement": "Neutrophils", "setting": "[1]; day 75", "result": 26.28}, {"measurement": "Clotting time", "setting": "[1]; day 90", "result": "111.00 ± 5.57", "unit": "s"}, {"measurement": "Eosinophil", "setting": "[1]; day 90", "result": 1.35, "unit": "%"}, {"measurement": "Hb", "setting": "[1]; day 90", "result": "12.78 ± 0.28", "unit": "g/dL"}, {"measurement": "Platelet count", "setting": "[1]; day 90", "result": "1070 ± 22.9 10³/µL"}, {"measurement": "RBC", "setting": "[1]; day 90", "result": "7.37 ± 0.20 10^6/μl"}, {"measurement": "Reticulocyte", "setting": "[1]; day 90", "result": "1.73 ± 0.02", "unit": "%"}, {"measurement": "WBC", "setting": "[1]; day 90", "result": "8.76 ± 0.19 10^3/μl"}, {"measurement": "Lymphocyte", "setting": "[1]; day 90", "result": 70.82}, {"measurement": "Neutrophils", "setting": "[1]; day 90", "result": 26.37}, {"measurement": "HMG Co Reductase", "setting": "HMG CoA Reductase; HFD Continued", "result": "224.83 ± 18.48", "unit": "U/mg"}, {"measurement": "HMG Co Reductase", "setting": "HMG CoA Reductase; HFD Discontinued", "result": "170.03 ± 2.71", "unit": "U/mg"}, {"measurement": "Average Body Weight", "setting": "[2]; HFD continued, day 0", "result": "275.33 ± 7.09"}, {"measurement": "Average Body Weight", "setting": "[2]; HFD continued, day 15", "result": "270.67 ± 7.37"}, {"measurement": "Average Body Weight", "setting": "[2]; HFD continued, day 30", "result": "268.33 ± 2.52"}, {"measurement": "Average Body Weight", "setting": "[2]; HFD continued, day 45", "result": "265.67 ± 6.51"}, {"measurement": "Average Body Weight", "setting": "[2]; HFD continued, day 60", "result": "262.33 ± 7.15"}, {"measurement": "Average Body Weight", "setting": "[2]; HFD discontinued, day 0", "result": "270.33 ± 8.74"}, {"measurement": "Average Body Weight", "setting": "[2]; HFD discontinued, day 30", "result": "264.33 ± 3.06"}, {"measurement": "Average Body Weight", "setting": "[2]; HFD discontinued, day 45", "result": "263.00 ± 5.57"}, {"measurement": "Average Body Weight", "setting": "[2]; HFD discontinued, day 60", "result": "259.83 ± 6.27"}]}]}
